Experimental data taken from US11274124B2, “Tubulysin analogues as anticancer agents and payloads for antibody-drug conjugates and methods of treatment therewith” (William Marsh Rice University, priority 2017, dated 2022).
Like-named read-outs stand apart in the source and are kept apart here.

What was measured:
[1] = test system: HEK 293T (human embryonic kidney cancer cell line); assay: In vitro cytotoxicity assay (CellTiter-Glo, 72 hours), HEK 293T; assay type: cell-based
[2] = test system: MES SA DX (MES SA cell line with marked multi-drug resistance); assay: In vitro cytotoxicity assay (CellTiter-Glo, 72 hours), MES SA DX
[3] = test system: MES SA (uterine sarcoma cell line); assay: In vitro cytotoxicity assay (CellTiter-Glo, 72 hours), MES SA; assay type: cell-based
[4] = Homo sapiens, HEK-293T, 72 h, read-out: HEK 293T, IC50
[5] = Homo sapiens, HEK-293T, 72 h, read-out: HEK 293T, IC50 Value in nM
[6] = Homo sapiens, MES-SA, 72 h, read-out: MES SA DX, IC50
[7] = Homo sapiens, MES-SA, 72 h, read-out: MES SA DX, IC50 Value in nM
[8] = Homo sapiens, MES-SA, 72 h, read-out: MES SA, IC50
[9] = Homo sapiens, MES-SA, 72 h, read-out: MES SA, IC50 Value in nM

| Structure (SMILES) | IC50 [1, 4] [nM] | IC50 [1, 5] [nM] | IC50 [2, 6] [nM] | IC50 [2, 7] [nM] | IC50 [3, 8] [nM] | IC50 [3, 9] [nM] | IC50 ([1]; Table 2, 72 hours, CellTiter-Glo, read-out: HEK 293T, IC50 Value in nM) [nM] | IC50 ([2]; read-out: MES SA DX, IC50 Value in nM, Table 2, 72 hours, CellTiter-Glo) [nM] | IC50 ([3]; Table 2, 72 hours, CellTiter-Glo, read-out: MES SA, IC50 Value in nM) [nM] | cytotoxicities against the marked drug resistant cancer cell line MES SA DX (in words) [2] |
| --- | --- | --- | --- | --- | --- | --- | --- | --- | --- | --- |
| COC(=O)[C@H](CO)C[C@H](Cc1ccccc1)NC(=O)c1csc([C@@H](C[C@H](C(C)C)N(C)C(=O)[C@@H](NC(=O)[C@H]2CCCCN2C)C(C)C)OC(C)=O)n1 [Tb120, Methyl (2S,4R)-4-{2-[(1R,3R)-1-acetoxy-3-{(S)—N,3-dimethyl-2-[(R)-1-methylpiperidine-2-carboxamido]butanamido}-4-methylpentyl]thiazole-4-carboxamido}-2-(hydroxymethyl)-5-phenylpentanoate] | 0.039 | 0.039 | > 14 | > 14 | 0.059 | 0.059 |  |  |  |  |
| COC(=O)[C@@H](CO)C[C@H](Cc1ccccc1)NC(=O)c1csc([C@@H](C[C@H](C(C)C)N(C)C(=O)[C@@H](NC(=O)[C@H]2CCCCN2C)C(C)C)OC(C)=O)n1 [Tb119, Methyl (2R,4R)-4-{2-[(1R,3R)-1-acetoxy-3-{(S)—N,3-dimethyl-2-[(R)-1-methylpiperidine-2-carboxamido]butanamido}-4-methylpentyl]thiazole-4-carboxamido}-2-(hydroxymethyl)-5-phenylpentanoate] | 0.041 | 0.041 | > 14 | > 14 | 0.093 | 0.093 |  |  |  |  |
| COC(=O)[C@@H](C)C[C@H](Cc1ccccc1)NC(=O)c1csc([C@@H](C[C@H](C(C)C)N(C)C(=O)[C@H](CC(F)(F)F)NC(=O)[C@H]2CCCN2C)OC(C)=O)n1 [Tb82, Methyl (2S,4R)-4-[({2-[(1R,3R)-1-acetoxy-4-methyl-3-{methyl[(2S)-4,4,4-trifluoro-2-({[(2R)-1-methylpyrrolidin-2-yl]carbonyl}amino)butanoyl]amino}pentyl]-1,3-thiazol-4-yl}carbonyl)amino]-2-methyl-5-phenylpentanoate] |  | 51.6 |  | > 1000 |  | 47.5 |  |  |  |  |
| CC[C@H](C)[C@H](NC(=O)[C@H]1CCCCN1C)C(=O)N(C)[C@H](C[C@@H](OC(C)=O)c1nc(C(=O)N[C@@H](Cc2ccccc2)C[C@H](C)C(=O)O)cs1)C(C)C [Tb1, N^14-desacetoxytubulysin H, reference compound] |  |  |  |  |  |  | 0.02 | > 10 | 0.34 |  |
| CCCCN1CCCC[C@@H]1C(=O)N[C@H](C(=O)N(C)[C@H](C[C@@H](OC(C)=O)c1nc(C(=O)N[C@@H](Cc2cn(C)c3ccccc23)C[C@H](C)C(=O)OC)cs1)C(C)C)[C@@H](C)CC [Tb57, Methyl (2S,4R)-4-[({2-[(1R,3R)-1-acetoxy-3-{[(2S,3S)-2-({[(2R)-1-butylpiperidin-2-yl]carbonyl}-amino)-3-methylpentanoyl](methyl)amino}-4-methylpentyl]-1,3-thiazol-4-yl}carbonyl)amino]-2-methyl-5-(1-methyl-1H-indol-3-yl)pentanoate] |  | > 1000 |  | > 1000 |  | > 1000 |  |  |  |  |
| CC(=O)O[C@H](C[C@H](C(C)C)N(C)C(=O)[C@H](C)NC(=O)[C@H]1CCCCN1C)c1nc(C(=O)N[C@@H](Cc2ccccc2)C[C@H](C)C(=O)O)cs1 [Tb91, (2S,4R)-4-[({2-[(1R,3R)-1-Acetoxy-4-methyl-3-{methyl[(2S)-2-({[(2R)-1-methylpiperidin-2-yl]car-bonyl}amino)propanoyl]amino}pentyl]-1,3-thiazol-4-yl}carbonyl)amino]-2-methyl-5-phenylpentanoic acid] |  | > 1000 |  | > 1000 |  | > 1000 |  |  |  |  |
| CC(=O)O[C@H](C[C@H](C(C)C)N(C)C(=O)[C@@H](NC(=O)[C@H]1CCCCN1C)C(C)C)c1nc(C(=O)N[C@@H](Cc2ccccc2)CC2C(=O)OC(C)(C)OC2=O)cs1 [Tb114, 1-(4-{[1-(2,2-Dimethyl-4,6-dioxo-1,3-dioxan-5-yl)-3-phenylpropan-2-yl]carbamoyl}-1,3-thiazol-2-yl)-4-methyl-3-[methyl(3-methyl-2-{[(1-methylpiperidin-2-yl)carbonyl]amino}butanoyl)amino]-pentyl acetate] |  | 0.524 |  | > 400 |  | 1.23 |  |  |  |  |
| CC(=O)O[C@H](C[C@H](C(C)C)N(C)C(=O)[C@@H](NC(=O)[C@H]1CCCCN1C)C(C)C)c1nc(C(=O)NC(Cc2ccccc2)C[C@H](C)C(=O)O)c(CCOCc2ccccc2)s1 (stereo in doubt) [Tb111, (2S,4S)-4-[({2-[(1R,3R)-1-acetoxy-4-methyl-3-{methyl[(2S)-3-methyl-2-{[(1-methylpiperidin-2-yl)carbonyl]amino}butanoyl]amino}pentyl]-5-[2-(benzyloxy)ethyl]-1,3-thiazol-4-yl}carbonyl)-amino]-2-methyl-5-phenylpentanoic acid] | 0.006 | 0.006 | 1.54 | 1.54 | 0.04 | 0.04 |  |  |  | relatively potent (low nanomolar) |
| CC(=O)O[C@H](CC(C(C)C)N(C)C(=O)[C@@H](NC(=O)[C@H]1CCCCN1C)C(C)C)c1nc(C(=O)NC(Cc2ccccc2)CC(C)C(=O)O)c(CCO)s1 (stereo in doubt) [Tb113, (2R,4S)-4-[({2-[(1R,3S)-1-Acetoxy-4-methyl-3-{methyl[(2S)-3-methyl-2-{[(1-methylpiperidin-2-yl)-carbonyl]amino}butanoyl]amino}pentyl]-5-(2-hydroxyethyl)-1,3-thiazol-4-yl}carbonyl)amino]-2-methyl-5-phenylpentanoic acid] |  | 0.315 |  | > 400 |  | 5.79 |  |  |  |  |
| COC(=O)[C@@H](C)C[C@H](Cc1ccccc1)NC(=O)c1csc([C@@H](C[C@H](C(C)C)N(C)C(=O)[C@H](CC(F)(F)F)NC(=O)[C@H]2CCCCN2C)OC(C)=O)n1 [Tb81, Methyl (2S,4R)-4-[({2-[(1R,3R)-1-acetoxy-4-methyl-3-{methyl[(2S)-4,4,4-trifluoro-2-({[(2R)-1-meth-ylpiperidin-2-yl]carbonyl}amino)butanoyl]amino}pentyl]-1,3-thiazol-4-yl}carbonyl)amino]-2-methyl-5-phenylpentanoate] |  | 4.98 |  | > 1000 |  | 5.84 |  |  |  |  |
| CCCCN1CCCC[C@@H]1C(=O)N[C@H](C(=O)N(C)[C@H](C[C@@H](OC(C)=O)c1nc(C(=O)N[C@@H](Cc2ccccc2)CC(CO)C(=O)OC)cs1)C(C)C)[C@@H](C)CC (stereo partly drawn) [Tb56, Methyl (4R)-4-[({2-[(1R,3R)-1-acetoxy-3-{[(2S,3S)-2-({[(2R)-1-butylpiperidin-2-yl]carbonyl}amino)-3-methylpentanoyl](methyl)amino}-4-methylpentyl]-1,3-thiazol-4-yl}carbonyl)amino]-2-(hydroxy-methyl)-5-phenylpentanoate] |  | > 1000 |  | > 1000 |  | > 1000 |  |  |  |  |
| CCOC(=O)C(C)CC(Cc1ccccc1)NC(=O)c1nc([C@@H](CC(C(C)C)N(C)C(=O)[C@@H](NC(=O)[C@H]2CCCCN2C)C(C)C)OC(C)=O)sc1CCO (stereo in doubt) [Tb112, Ethyl (2R,4S)-4-[({2-[(1R,3S)-1-acetoxy-4-methyl-3-{methyl[(2S)-3-methyl-2-{[(1-methylpiperidin-2-yl)carbonyl]amino}butanoyl]amino}pentyl]-5-(2-hydroxyethyl)-1,3-thiazol-4-yl}carbonyl)amino]-2-methyl-5-phenylpentanoate] | 0.09 | 0.09 | > 400 | > 400 | 0.1 | 0.1 |  |  |  |  |
| CC(=O)O[C@H](C[C@H](C(C)C)N(C)C(=O)[C@H](NC(=O)[C@H]1CCCCN1C)C(C(F)(F)F)C(F)(F)F)c1nc(C(=O)N[C@@H](Cc2ccccc2)C[C@H](C)C(=O)O)cs1 [Tb87, (2S,4R)-4-[({2-[(1R,3R)-1-Acetoxy-4-methyl-3-{methyl[(2R)-4,4,4-trifluoro-2-({[(2R)-1-methyl-piperidin-2-yl]carbonyl}amino)-3-(trifluoromethyl)butanoyl]amino}pentyl]-1,3-thiazol-4-yl}carbonyl)amino]-2-methyl-5-phenylpentanoic acid] |  | > 1000 |  | > 1000 |  | 234 |  |  |  |  |
| COC(=O)C(CC(Cc1ccccc1)NC(=O)c1csc([C@@H](CC(C(C)C)N(C)C(=O)[C@@H](NC(=O)[C@H]2CCCCN2C)C(C)C)OC(C)=O)n1)NC(=O)OCc1ccccc1 (stereo in doubt) [Tb116, Methyl(2R,4R)-4-[({2-[(1R,3S)-1-acetoxy-4-methyl-3-{methyl[(2S)-3-methyl-2-{[(1-methylpiperidin-2-yl)carbonyl]amino}butanoyl]amino}pentyl]-1,3-thiazol-4-yl}carbonyl)amino]-2-{[(benzyloxy)carbonyl]amino}-5-phenylpentanoate] | 0.003 | 0.003 | 6 | 6 | 0.007 | 0.007 |  |  |  | relatively potent (low nanomolar) |
| COC(=O)[C@@H](C)C[C@H](Cc1ccccc1)NC(=O)c1cccc([C@@H](C[C@H](C(C)C)N(C)C(=O)[C@@H](NC(=O)[C@H]2CCCCN2C)C(C)C)OC(C)=O)n1 [Tb64, Methyl (2S,4R)-4-[({6-[(1R,3R)-1-acetoxy-4-methyl-3-{methyl[(2S)-3-methyl-2-({[(2R)-1-methyl-piperidin-2-yl]carbonyl}amino)butanoyl]amino}pentyl]pyridin-2-yl}carbonyl)amino]-2-methyl-5-phenylpentanoate] | 0.1 | 0.1 | 109 | 109 | 0.22 | 0.22 |  |  |  |  |
